# Earlier results in US8691302B2, “Peptide-containing seasoning” (Kikkoman Corporation, priority 2008, dated 2014).
# What was measured:
# [1] = molecular target: angiotensin converting enzyme (Homo sapiens, UniProt P12821); conditions: reported in Non-patent Reference 1
# [2] = reported in Non-patent Reference 1
# Chain of angiotensin converting enzyme (P12821 30-1306, species assumed): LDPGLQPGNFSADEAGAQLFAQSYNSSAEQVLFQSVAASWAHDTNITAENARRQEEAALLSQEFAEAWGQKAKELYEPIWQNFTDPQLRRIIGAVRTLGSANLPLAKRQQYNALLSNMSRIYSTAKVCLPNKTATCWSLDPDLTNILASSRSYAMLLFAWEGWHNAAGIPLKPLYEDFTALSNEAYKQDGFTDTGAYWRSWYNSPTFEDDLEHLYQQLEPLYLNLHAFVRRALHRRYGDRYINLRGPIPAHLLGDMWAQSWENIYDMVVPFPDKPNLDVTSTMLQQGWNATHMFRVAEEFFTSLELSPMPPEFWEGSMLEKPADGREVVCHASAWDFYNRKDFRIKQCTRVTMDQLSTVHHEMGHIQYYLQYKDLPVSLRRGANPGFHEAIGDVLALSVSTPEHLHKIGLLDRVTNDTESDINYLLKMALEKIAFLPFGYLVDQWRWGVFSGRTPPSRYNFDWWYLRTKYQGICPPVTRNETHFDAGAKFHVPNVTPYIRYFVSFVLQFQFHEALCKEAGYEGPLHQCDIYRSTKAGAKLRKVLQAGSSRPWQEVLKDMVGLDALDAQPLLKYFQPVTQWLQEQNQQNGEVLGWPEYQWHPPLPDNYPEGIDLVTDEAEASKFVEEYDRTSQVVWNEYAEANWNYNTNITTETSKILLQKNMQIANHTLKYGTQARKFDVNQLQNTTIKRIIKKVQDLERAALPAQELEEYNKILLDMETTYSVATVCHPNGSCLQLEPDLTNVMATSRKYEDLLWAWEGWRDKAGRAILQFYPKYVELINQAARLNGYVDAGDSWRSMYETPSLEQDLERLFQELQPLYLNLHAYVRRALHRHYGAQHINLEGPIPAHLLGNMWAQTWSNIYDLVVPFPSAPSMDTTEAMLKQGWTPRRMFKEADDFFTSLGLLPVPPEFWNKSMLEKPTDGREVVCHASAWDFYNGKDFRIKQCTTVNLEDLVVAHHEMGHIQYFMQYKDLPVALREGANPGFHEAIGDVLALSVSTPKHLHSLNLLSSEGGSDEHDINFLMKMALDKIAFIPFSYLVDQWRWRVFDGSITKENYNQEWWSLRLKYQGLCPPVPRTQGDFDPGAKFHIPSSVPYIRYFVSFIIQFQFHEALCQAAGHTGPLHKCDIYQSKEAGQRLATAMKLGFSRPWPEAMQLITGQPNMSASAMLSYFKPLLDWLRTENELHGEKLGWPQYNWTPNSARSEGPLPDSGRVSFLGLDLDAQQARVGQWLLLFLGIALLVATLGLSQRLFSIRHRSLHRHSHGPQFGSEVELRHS
substance,measurement,setting,value
Gly-Tyr,angiotensin converting enzyme inhibitory activity,[1],have an angiotensin converting enzyme inhibitory activity
same,hypotensive activity,[2],a hypotensive activity
Ser-Tyr,angiotensin converting enzyme inhibitory activity,[1],have an angiotensin converting enzyme inhibitory activity
same,hypotensive activity,[2],a hypotensive activity
